According to ChEMBL document CHEMBL3797034, “Design, synthesis and evaluation of novel tacrine-multialkoxybenzene hybrids as multi-targeted compounds against Alzheimer's disease” (Eur J Med Chem, 2016):
Calls of active or inactive are those of the source. The calls are words filed in the database; no cut-off is given here.

Key:
[1] = molecular target: Amyloid-beta precursor protein (Homo sapiens, UniProt P05067)
Description: Inhibition of self-mediated amyloid beta (1 to 42) (unknown origin) aggregation after 24 hrs by thioflavin T fluorescence assay

Cholinesterase = Cholinesterase (Equus caballus, UniProt P81908)
Description: Inhibition of equine serum BuChE using butylthiocholine chloride as substrate preincubated for 20 mins followed by substrate addition by Ellman's method

Acetylcholinesterase = Acetylcholinesterase (Electrophorus electricus, UniProt O42275)
Acetylcholinesterase, sequence (O42275 whole entry): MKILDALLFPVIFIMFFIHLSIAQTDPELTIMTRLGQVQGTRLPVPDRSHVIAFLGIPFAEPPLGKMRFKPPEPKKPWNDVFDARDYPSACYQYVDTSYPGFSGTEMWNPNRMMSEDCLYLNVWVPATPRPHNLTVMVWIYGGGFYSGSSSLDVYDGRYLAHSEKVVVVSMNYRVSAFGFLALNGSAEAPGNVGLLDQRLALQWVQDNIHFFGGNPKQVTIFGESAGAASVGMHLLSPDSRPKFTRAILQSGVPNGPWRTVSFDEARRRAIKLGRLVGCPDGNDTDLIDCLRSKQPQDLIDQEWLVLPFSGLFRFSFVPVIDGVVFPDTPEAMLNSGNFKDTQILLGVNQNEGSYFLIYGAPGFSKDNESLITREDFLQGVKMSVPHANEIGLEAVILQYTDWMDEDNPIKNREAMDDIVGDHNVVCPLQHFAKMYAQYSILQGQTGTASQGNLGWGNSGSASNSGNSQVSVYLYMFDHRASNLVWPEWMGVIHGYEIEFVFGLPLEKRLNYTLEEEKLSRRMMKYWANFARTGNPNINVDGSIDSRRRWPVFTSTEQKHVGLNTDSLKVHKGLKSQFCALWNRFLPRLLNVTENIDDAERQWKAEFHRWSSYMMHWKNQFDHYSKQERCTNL
Description: Inhibition of electric eel AChE using acetylthiocholine chloride as substrate preincubated for 20 mins followed by substrate addition by Ellman's method

[2] = molecular target: Acetylcholinesterase (Electrophorus electricus) (UniProt O42275); test: Reversible inhibition of electric eel AChE using acetylthiocholine chloride as substrate preincubated for 20 mins followed by substrate addition by Lineweaver-burk plot analysis
Acetylcholinesterase (Electrophorus electricus), sequence (O42275 24-633 limits assumed): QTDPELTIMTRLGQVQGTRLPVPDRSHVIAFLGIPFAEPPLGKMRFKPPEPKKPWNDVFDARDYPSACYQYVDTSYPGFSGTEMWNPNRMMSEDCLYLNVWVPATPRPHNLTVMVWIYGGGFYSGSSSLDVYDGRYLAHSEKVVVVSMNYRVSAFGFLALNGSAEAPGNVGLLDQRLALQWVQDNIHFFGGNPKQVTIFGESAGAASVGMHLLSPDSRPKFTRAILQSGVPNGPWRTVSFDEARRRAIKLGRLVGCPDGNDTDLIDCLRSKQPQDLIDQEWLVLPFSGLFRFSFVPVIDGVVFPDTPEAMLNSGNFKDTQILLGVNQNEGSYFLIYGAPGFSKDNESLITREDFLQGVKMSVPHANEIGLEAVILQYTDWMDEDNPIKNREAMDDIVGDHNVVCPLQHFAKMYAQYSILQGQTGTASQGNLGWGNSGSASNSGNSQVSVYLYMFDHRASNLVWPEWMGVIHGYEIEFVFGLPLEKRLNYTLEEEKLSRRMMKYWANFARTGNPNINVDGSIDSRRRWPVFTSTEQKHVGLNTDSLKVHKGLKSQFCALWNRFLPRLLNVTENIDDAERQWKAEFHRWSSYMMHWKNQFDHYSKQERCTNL

[3] = molecular target: Acetylcholinesterase (Electrophorus electricus) (UniProt O42275); test: Mixed inhibition of electric eel AChE using acetylthiocholine chloride as substrate preincubated for 20 mins followed by substrate addition by Lineweaver-burk plot analysis

Cholinesterase, sequence (P81908 whole entry): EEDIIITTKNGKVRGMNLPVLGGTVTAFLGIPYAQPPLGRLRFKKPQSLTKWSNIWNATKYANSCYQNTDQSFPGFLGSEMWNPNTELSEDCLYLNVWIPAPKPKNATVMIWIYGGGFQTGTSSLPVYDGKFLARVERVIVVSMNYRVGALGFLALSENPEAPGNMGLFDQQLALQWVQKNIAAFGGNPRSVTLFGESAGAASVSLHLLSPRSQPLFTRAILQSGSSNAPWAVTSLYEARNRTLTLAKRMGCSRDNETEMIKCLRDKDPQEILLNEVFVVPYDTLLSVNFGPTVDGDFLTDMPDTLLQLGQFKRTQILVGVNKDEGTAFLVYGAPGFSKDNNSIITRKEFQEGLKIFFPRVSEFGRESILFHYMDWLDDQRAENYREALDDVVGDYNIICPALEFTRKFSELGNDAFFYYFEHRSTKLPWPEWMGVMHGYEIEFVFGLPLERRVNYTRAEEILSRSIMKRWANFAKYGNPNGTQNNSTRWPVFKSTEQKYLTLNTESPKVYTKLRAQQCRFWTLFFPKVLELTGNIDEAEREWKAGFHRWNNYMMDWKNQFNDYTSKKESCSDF
Amyloid-beta precursor protein, sequence (P05067 whole entry): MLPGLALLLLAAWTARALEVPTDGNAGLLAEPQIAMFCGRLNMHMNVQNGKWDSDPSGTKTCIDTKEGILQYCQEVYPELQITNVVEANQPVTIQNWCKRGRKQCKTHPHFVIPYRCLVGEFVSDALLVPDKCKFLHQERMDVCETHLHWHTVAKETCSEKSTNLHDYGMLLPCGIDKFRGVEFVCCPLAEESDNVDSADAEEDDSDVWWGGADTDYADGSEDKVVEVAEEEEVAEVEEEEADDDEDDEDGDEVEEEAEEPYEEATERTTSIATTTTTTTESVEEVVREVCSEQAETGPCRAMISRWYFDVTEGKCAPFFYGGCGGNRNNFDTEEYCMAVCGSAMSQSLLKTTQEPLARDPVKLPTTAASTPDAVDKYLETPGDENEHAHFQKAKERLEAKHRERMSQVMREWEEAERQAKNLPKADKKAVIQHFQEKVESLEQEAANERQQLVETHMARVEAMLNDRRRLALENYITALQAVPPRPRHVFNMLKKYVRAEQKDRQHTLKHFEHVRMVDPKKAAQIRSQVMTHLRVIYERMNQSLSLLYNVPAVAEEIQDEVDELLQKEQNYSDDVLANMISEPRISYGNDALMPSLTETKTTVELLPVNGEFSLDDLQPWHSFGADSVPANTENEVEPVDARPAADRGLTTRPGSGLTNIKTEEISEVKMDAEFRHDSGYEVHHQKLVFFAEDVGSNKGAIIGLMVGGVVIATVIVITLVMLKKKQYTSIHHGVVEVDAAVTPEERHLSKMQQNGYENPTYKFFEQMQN

SMILES	IC50 [1] [nM]	IC50 (Cholinesterase) [nM]	IC50 (Acetylcholinesterase) [nM]	inhibition [2]	inhibition [3]
O=C(COC(=O)Cc1ccc(O)cc1)Nc1c2c(nc3ccccc13)CCCC2	45.3	239	74	–	–
COc1ccc(CC(=O)OCC(=O)Nc2c3c(nc4ccccc24)CCCC3)cc1OC	22.5	554	65.1	–	–
COc1cc(/C=C/C(=O)OCC(=O)Nc2c3c(nc4ccccc24)CCCC3)cc(OC)c1OC	45.9	299	16.9	–	–
O=C(COC(=O)c1ccc(O)c(O)c1)Nc1c2c(nc3ccccc13)CCCC2	17.4	344	133	–	–
COc1cc(C(=O)OCC(=O)Nc2c3c(nc4ccccc24)CCCC3)ccc1O	37.4	319	70.1	–	–
O=C(COC(=O)/C=C/c1ccc(Cl)cc1)Nc1c2c(nc3ccccc13)CCCC2	51.8	542	213	–	–
COc1cc(C(=O)OCC(=O)Nc2c3c(nc4ccccc24)CCCC3)cc(OC)c1OC	30.7	329	8.46	–	–
COc1ccc(C(=O)OCC(=O)Nc2c3c(nc4ccccc24)CCCC3)c(OC)c1OC	65.5	255	15.5	–	–
COc1ccc(/C=C/C(=O)OCC(=O)Nc2c3c(nc4ccccc24)CCCC3)cc1OC	49.1	159	16.2	–	–
O=C(COC(=O)Cc1c[nH]c2ccccc12)Nc1c2c(nc3ccccc13)CCCC2	39	292	8.13	–	–
COc1ccc(CC(=O)OCC(=O)Nc2c3c(nc4ccccc24)CCCC3)cc1	71.3	319	25.3	–	–
O=C(COC(=O)Cc1ccc(Cl)cc1)Nc1c2c(nc3ccccc13)CCCC2	77.5	218	183	–	–
COc1ccc(/C=C/C(=O)OCC(=O)Nc2c3c(nc4ccccc24)CCCC3)cc1O	46.1	355	74.9	–	–
COc1ccc(CC(=O)OCC(=O)Nc2c3c(nc4ccccc24)CCCC3)c(OC)c1OC	51.8	364	5.63	Active	Active
COc1cc(OC)cc(C(=O)OCC(=O)Nc2c3c(nc4ccccc24)CCCC3)c1	55.9	224	15.7	–	–
